Results on 1 compound are retold here after US20250073309A1, “METHODS OF TREATMENT OF PEDIATRIC PUBERTY USING ORAL FORMULATIONS OF LEUPROLIDE” (Enteris Biopharma, Inc., priority 2021, published 2025).

The conditions of this data set: female, human, in vivo, sc, 1 mg. As for the experimental part: The presently disclosed embodiments may include a technology platform employing enteric coating and permeation enhancement to enable systemic delivery of peptides via the oral route. To determine whether the oral formulation described herein enables systemic delivery of therapeutic doses of the GnRH agonist leuprolide via oral route, a randomized, four-period, four-treatment, crossover pharmacokinetic and food effect study was conducted in 14 healthy female volunteers, which compared PK profiles following single administrations of 1 and 4 mg of leuprolide—the latter under both fasting and fed conditions—to that of a single subcutaneous injection of 1 mg of leuprolide acetate.
Study objectives were to assess the relative bioavailability, dose proportionality, safety and tolerability of orally-administered leuprolide, as well as the effect of food on drug absorption. Frequent blood sampling for 24 hours followed each dose, and each treatment was separated by 7 days. […] The ‘fed’ condition involved consumption of a high-fat, high-calorie meal 30 minutes prior to drug administration.

`CCNC(=O)[C@@H]1CCCN1C(=O)[C@H](CCCNC(=N)N)NC(=O)[C@H](CC(C)C)NC(=O)[C@@H](CC(C)C)NC(=O)[C@H](Cc1ccc(O)cc1)NC(=O)[C@H](CO)NC(=O)[C@H](Cc1c[nH]c2ccccc12)NC(=O)[C@H](Cc1c[nH]cn1)NC(=O)[C@@H]1CCC(=O)N1` [sc leuprolide, leuprolide acetate]: the “Mean AUC0-24h” value was 163.0 ± 18.8 ng·h/mL, the “Mean Cmax” value came to 59.4 ± 9.1 ng/mL and the “Mean Tmax” value turned out to be 3.49 ± 0.23 h.
